In US12350383B2, “Cationic lipids containing silicon” (ARBUTUS BIOPHARMA CORPORATION, priority 2018, dated 2025):

System: human EPO expression
Assay: In vivo assay: human EPO expression in plasma after IV injection of LNP containing human EPO mRNA (human EPO ELISA)
Parameters: species or system female Balb/C mice
Conditions: 0.5 mg/kg LNP with human EPO mRNA, 4 h post dosing, Balb/C mice plasma (n = 4-5), cationic lipid at 55 mol %, 1.6 mol % PEG2000-C-DMA, 33% cholesterol, 11% DSPC
Description: Lipid stocks were prepared (about 7 mg/mL total lipid content) in 100% ethanol, using the lipid identities and molar ratios described. The mRNA was diluted in acetate pH 5 and nuclease-free water to reach a concentration of 0.366 mg/mL mRNA in 100 mM acetate pH 5. Equal volumes of each solution were blended at 400 mL/min in a T-connector, and diluted with about 4 volumes of PBS, pH 7.4, using the direct dilution method described in U.S. Pat. No. 9,404,127. Formulations were then placed in Slide-A-Lyzer dialysis units (MWCO 10,000) and were dialyzed overnight 10 mM Tris, 500 mM NaCl pH 8 (Tris/NaCl buffer). Following dialysis the formulations were concentrated to about 0.6 mg/mL using VivaSpin concentrator units (MWCO 100,000) and then filtered through a 0.2 um syringe filter.
The various lipids of the present invention were formulated in LNP compositions with the following molar ratios: DSPC (11%):Chol (33%):PEG2000-C-DMA (1.6%):Lipid X (55%). A composition was generated comprising the following components: • (a) nucleic acid; • (b) a mixture of cholesterol and DSPC; • (c) a conjugated lipid of formula: […]
Generally, the LNP were injected intravenously at 0.5 mg/kg to female Balb/C mice, 5-8 weeks old and blood was collected at 4-6 hours post dosing; blood is collected into K2EDTA and processed to plasma, then stored frozen at −80° C. until analysis. Activity was assayed by testing the plasma for human EPO expression using an human EPO ELISA kit either from StemCell (catalogue #01630) or R&D Systems (catalogue DEP00) following the manufacturer's instructions.

SMILES | EPO [mU/mL]
CCCCC/C=C\CCCC(CCC/C=C\CCCCC)CO[Si](CCCN(C)C)(OCC(CCC/C=C\CCCCC)CCC/C=C\CCCCC)OCC(CCC/C=C\CCCCC)CCC/C=C\CCCCC [Example 22] | 15075
CCCCCCCCCO[Si](CCCN(C)C)(OCCCCCCCCC)OCCCCCCCCC [Example 6] | 25596
C=C(C)C1CC=C(CO[Si](CCCCN(C)C)(OCC2=CCC(C(=C)C)CC2)OCC2=CCC(C(=C)C)CC2)CC1 (stereo not shown) [Example 23] | 17488
CCCCC/C=C\CCCO[Si](CCCCN1CCC(CO)CC1)(OCCC/C=C\CCCCC)OCCC/C=C\CCCCC [Example 9] | 37927
CCCCC/C=C\CCCO[Si](CCCN(C)C)(OCCC/C=C\CCCCC)OCCC/C=C\CCCCC [Example 2] | 144176
CCCCC/C=C\CCCO[Si](CCCCN(C)CCO)(OCCC/C=C\CCCCC)OCCC/C=C\CCCCC [Example 8] | 30446
CCCCCCC(CCCC)CO[Si](CCCCN(C)C)(OCC(CCCC)CCCCCC)OCC(CCCC)CCCCCC (stereo not shown) [Example 19] | 47218
CCCCC/C=C\CCCO[Si](CCCCN(C)C)(OCCC/C=C\CCCCC)OCCC/C=C\CCCCC [Example 4] | 1300807
CN(C)CCCC[Si](OCC12CC3CC(CC(C3)C1)C2)(OCC12CC3CC(CC(C3)C1)C2)OCC12CC3CC(CC(C3)C1)C2 [Example 17] | 226593
CCCCC/C=C\CCCO[Si](CCCCCCN(C)C)(OCCC/C=C\CCCCC)OCCC/C=C\CCCCC [Example 21] | 1470419
CCCCC/C=C\CCCC(CCC/C=C\CCCCC)O[Si](CCCCN1CCC(CO)CC1)(OC(CCC/C=C\CCCCC)CCC/C=C\CCCCC)OC(CCC/C=C\CCCCC)CCC/C=C\CCCCC [Example 15] | 18385
CCCCC/C=C\CCCO[Si](CCCCCN(C)C)(OCCC/C=C\CCCCC)OCCC/C=C\CCCCC [Example 20] | 2242992
CCCCCCCCCCO[Si](CCCCN(C)C)(OCCCCCCCCCC)OCCCCCCCCCC [Example 11] | 256974
